# Legend:
# Assay type in all cases: cell-based
# [1] = tested on: Staphylococcus aureus, Enterococcus faecalis, Streptococcus pneumoniae, Moraxelia catarrhalis and Escherichia coli; assay: MIC determination according to CLSI, panel of pathogens
# Experimental: (§1) The antibacterial activity expressed as minimal inhibitory concentration (MIC) was determined according to the approved standard reference recommendations of CLSI (former NCCLS).
# [2] = tested on: Staphylococcus aureus (MSSA) ATCC29213 B7; assay: MIC determination according to CLSI; settings: ATCC29213, strain B7
# Description: (§2) For example, the compounds of the present invention show antimicrobial, e.g. antibacterial, activity against gram positive bacteria, such as coagulase-positive and coagulase-negative Staphylococci, e.g. Staphylococcus aureus, Styphylococcus epidermis, Staphylococcus haemolyticus, Streptococci, e.g. Streptococcus pyogenes, Streptococcus pneumoniae, Streptococcus agalacticae, Enterococci, e.g. Enterococcus faecium and Moraxellaceae, e.g. Moraxella catarrhalis, Pasteurellaceae, e.g. Haemophilus influenzae, as well as against Mycoplasmactaceae, Chlamydiaceae, e.g. Chlamydia trachomatis, Chlamydia pneumoniae and obligatory anaerobes, e.g. Bacteroides fragilis, Clostridium difficile; in vitro in the Agar Dilution Test or Microdilution Test according to the Climical and Laboratory Standards Institute (CLSI, former National Commitee for Clinical Laboratory Standards (NCCLS) 2006, Document M7-A7 Vol. 26, No. 2: “Methods for dilution Antimicrobial Susceptibility Tests for Bacteria that Grow Aerobically—Seventh Edition, Approved Standard”; and in the in vitro determination of the antibacterial activity against anaerobic bacteria according to National Committee for Clinical Laboratory Standards (NCCLS) VOL. 24, No. 2, M11-A5, Methods for Antimicrobal Susceptibility Testing of Anaerobic Bacteria; Approved Standard; Sixth Edition (2004) and in vivo in the septicaemic mouse model against Staphylococcus aureus.
# as §1
# [3] = tested on: Enterococcus faecalis ATCC51299 B5; assay: MIC determination according to CLSI; settings: ATCC51299, strain B5
# Description: as §2, §1
# [4] = tested on: Moraxella catarrhalis ATCC43618 B407; assay: MIC determination according to CLSI; settings: ATCC43618, strain B407
# Description: as §2, §1
# [5] = tested on: Escherichia coli ATCC25922 B1; assay: MIC determination according to CLSI; settings: ATCC25922, strain B1
# Description: as §2, §1
# [6] = tested on: Staphylococcus aureus (MSSA) ATCC10390 B6; assay: MIC determination according to CLSI; settings: ATCC10390, strain B6
# Description: as §2, §1
# [7] = tested on: Enterococcus faecalis ATCC29212 B4; assay: MIC determination according to CLSI; settings: ATCC29212, strain B4
# Description: as §2, §1
# [8] = tested on: Streptococcus pneumoniae ATCC49619 B11; assay: MIC determination according to CLSI; settings: ATCC49619, strain B11
# Description: as §2, §1
SMILES,antibacterial activity (in vitro) ([1]; against at least one of the clinical relevant bacterial pathogens),factor by which MICs are lower than the MICs of Example 2 ([1]; against at least one of the strains shown in Table 1),MIC [2] [µg/mL],MIC [3] [µg/mL],MIC [4] [µg/mL],MIC [5] [µg/mL],MIC [6] [µg/mL],MIC [7] [µg/mL],MIC [8] [µg/mL]
"C=C[C@]1(C)C[C@@H](OC(=O)CSc2cccc(CO)c2)[C@]2(C)C(C)CCC3(CCC(=O)C32)[C@@H](C)[C@@H]1O (stereo partly shown) [Example 1, 14-O-[(3-Hydroxymethyl-phenylsulfanyl)-acetyl]-mutilin]",very good activity,≥ 2,≤ 0.0125,6.4,≤ 0.0125,12.8,≤ 0.0125,6.4,0.01
"C=C[C@]1(C)C[C@@H](OC(=O)CSc2ccc(C)cc2)[C@]2(C)C(C)CCC3(CCC(=O)C32)[C@@H](C)[C@@H]1O (stereo partly shown) [Example 2, 14-O-[(4-Methyl-phenylsulfanyl)-acetyl]-mutilin, reference compound]",,,0.025,> 25.6,≤ 0.0125,> 25.6,0.025,> 25.6,0.16

# Reference: patent US7816389B2, “Organic compounds” (Nabriva Therapeutics Forschungs GmbH, priority 2006, dated 2010)
